In patent US11260127B2, “Mesoporous silica nanoparticles for diagnostic and therapeutic applications” (CASE WESTERN RESERVE UNIVERSITY, priority 2017, dated 2022):

Experiment: In vitro RF-triggered drug release from Fe@MSN nanoparticles
Assay type: physicochemical
Settings: for drug release rate of two drugs compared: release from Fe@MSN under the same RF field
Description: FIGS. 2(A-E) illustrate in vitro evaluation of radiofrequency (RF)-triggered drug release from Fe@MSN nanoparticles. (A) The release of DOX was triggered from Fe@MSN particles using an RF field at different frequencies (1, 20, 50 and 380 kHz; n=4). […] (C) Effect of elevated temperature on the drug release from Fe@MSN particles with an incubation time of 60 min (n=4; unpaired t-test P<0.0001). (D) Drug release from Fe@MSN at different particle concentration under an RF field at 50 kHz. (E) Drug release from Fe@MSN particles at different depths in the RF source (RF field: 50 kHz).
Further, when the temperature of the Fe@MSN suspension was elevated to 60° C. for 60 min by external heating, negligible drug was released ([…]). These two findings indicate that the triggered release mechanism is not based on hyperthermic effects applications, thereby minimizing the role of Neel relaxation phenomenon in RF-triggered drug release from the Fe@MSN nanoparticles.
Similar drug release rate per nanochain particle was observed from suspensions of dramatically different concentrations of Fe@MSN nanoparticles when subjected to the same RF field.
The RF-triggered drug release is nearly independent of the type of drug molecules.

| Compound | drug release rate of two drugs compared | RF-triggered drug release rate (RF field, very low Fe@MSN concentration, 1 or 10 kHz) |
| --- | --- | --- |
| CC(=N)NCc1cccc(CN)c1 [1400 W] | almost identical |  |
| COc1cccc2c1C(=O)c1c(O)c3c(c(O)c1C2=O)C[C@@](O)(C(=O)CO)C[C@@H]3O[C@H]1C[C@H](N)[C@H](O)[C@H](C)O1 [DOX, doxorubicin] | almost identical | triggered in a controlled manner |
